# Assay results as given in PubChem BioAssay AID1552 (Sanford-Burnham Center for Chemical Genomics, 2009).
# The source made the active and inactive calls. No rule for the calls is given here.
# Molecular target: Ubiquitin-conjugating enzyme E2 N (Homo sapiens) (UniProt P61088)
# Assay: UBE2N binders by NMR, biophysical, purified protein (AID 1552)
# Conditions: NMR binding to purified UBE2N
# Sequence of Ubiquitin-conjugating enzyme E2 N (Homo sapiens) (P61088 whole entry, looked up): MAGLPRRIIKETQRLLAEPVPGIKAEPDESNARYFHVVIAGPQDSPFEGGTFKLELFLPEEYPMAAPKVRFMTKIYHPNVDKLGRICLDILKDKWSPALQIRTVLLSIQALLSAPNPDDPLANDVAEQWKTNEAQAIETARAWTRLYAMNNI
row,Compound,Kd
1,CN(C)C(=O)CCNS(=O)(=O)c1ccccc1,> 4 mM (inactive)
2,CCOC(=O)Nc1ccc2c(C)cc(=O)oc2c1,> 4 mM (inactive)
3,Cc1ccccc1NC(=O)N1CCOCC1,> 4 mM (inactive)
4,OC12CC3CC(C1)C1(NCCS1)C(C3)C2 (stereo not given),> 4 mM (inactive)
5,CN1C2CC[C@@H]1CC(OC(=O)[C@H](CO)c1ccccc1)C2 (stereo not given in full),> 4 mM (inactive)
6,Cc1n[nH]c(C)c1N,> 4 mM (inactive)
7,COc1ccccc1NC(=O)/C=N/O,> 4 mM (inactive)
8,Cc1occc1C(=O)Nc1nnc(C2CCCCC2)s1,> 4 mM (inactive)
9,Cc1sc2nc(NCCO)[nH]c(=O)c2c1C,> 4 mM (inactive)
10,CC(=O)OCC(=O)[C@@]1(O)CCC2C3CC[C@@H]4C[C@H](O)CC[C@]4(C)C3C(=O)C[C@@]21C (stereo not given in full),> 4 mM (inactive)
11,O=c1[nH]nnc2sc3c(c12)CCCC3,> 4 mM (inactive)
12,O=C(O)CCCCC1SCC2NC(=O)NC21 (stereo not given),> 4 mM (inactive)
13,O=C(O)CS(=O)(=O)c1ccccc1[N+](=O)[O-],> 4 mM (inactive)
14,COc1ccc(-c2c(OC)c3c(OC)c4c(cc3oc2=O)OC(C)(C)C=C4)cc1,> 4 mM (inactive)
15,CC(=O)N1CCc2cc(NC(=O)c3ccc(C)cc3)ccc21,> 4 mM (inactive)
16,CC(=O)OC1CCC23CC1(C)CCC2C(C)(C)CC3OC(C)=O (stereo not given),> 4 mM (inactive)
17,Cc1nccc2c1[nH]c1ccccc12,> 4 mM (inactive)
18,Cc1cc(C(=O)Nc2cccnc2)cs1,> 4 mM (inactive)
19,CCn1nccc1C(=O)Nc1ccc(Cl)cc1Cl,> 4 mM (inactive)
20,CCOC(=O)CNc1ncnc2c1nnn2CC,> 4 mM (inactive)
21,C/C(=N\NC(N)=S)C(=O)O,> 4 mM (inactive)
22,Cc1noc(C)c1C(=O)N1CCN(c2ncccn2)CC1,> 4 mM (inactive)

row,Compound,Kd
1,NC(=O)CC[C@H](N)C(=O)O,> 4 mM (inactive)
2,O=C(O)c1sccc1-n1cccc1,> 4 mM (inactive)
3,CC(C)c1c(O)ccc2c1CCC1[C@@](C)(CO)CCC[C@]21C (stereo not given in full),> 4 mM (inactive)
4,COc1ccc(Cc2nnc3c4cnn(C)c4ncn23)cc1,> 4 mM (inactive)
5,CC1=NNC(=O)C1CCc1ccncc1 (stereo not given),> 4 mM (inactive)
6,c1n[nH]cc1-c1cn[nH]c1,> 4 mM (inactive)
7,COc1c2ccoc2cc2oc(=O)ccc12,> 4 mM (inactive)
8,CCc1ccccc1NC(=O)c1cnccn1,> 4 mM (inactive)
9,O=C(O)c1snnc1-c1ccccc1,> 4 mM (inactive)
10,O=C(O)C1(O)C[C@@H](O)C(O)[C@H](O)C1 (stereo not given in full),> 4 mM (inactive)
11,Nc1ccc(-n2cncn2)cc1,> 4 mM (inactive)
12,O=Cc1c(N2CCOCC2)nc2ccccn2c1=O,> 4 mM (inactive)
13,CC1(C)C2C[C@@H](O)[C@]3(C)C(CC[C@@]4(C)[C@H](c5ccoc5)OC(=O)[C@H]5O[C@]543)[C@@]2(C)[C@@H](O)C[C@H]1O (stereo not given in full),> 4 mM (inactive)
14,Cc1oc(-c2ccccc2)cc1C(N)=O,> 4 mM (inactive)
15,CCSc1nc(C)c(CC)c(C)c1C(N)=O,> 4 mM (inactive)
16,CC(CCC(=O)O)[C@H]1CCC2C3CC[C@@H]4C[C@H](O)CC[C@]4(C)C3C[C@H](O)[C@@]21C (stereo not given in full),> 4 mM (inactive)
17,O=C(Cn1cncn1)c1ccc(F)c(F)c1,> 4 mM (inactive)
18,CC1(C)Cc2c(C#N)c(N)n(-c3ccccc3)c(=O)c2CO1,> 4 mM (inactive)
19,Cc1ccc(NC(=O)C(=O)Nc2ccccn2)cc1,> 4 mM (inactive)
20,Cc1ccc(/C=N/NC(N)=O)o1,> 4 mM (inactive)
21,Cn1nnc2c(N3CCC(C(N)=O)CC3)ncnc21,> 4 mM (inactive)
22,Oc1ccc(C(=S)N2CCOCC2)cc1,> 4 mM (inactive)

row,Compound,Kd
1,Cc1nnc(NCc2cccnc2)[nH]c1=O,> 4 mM (inactive)
2,Cc1nn2c(=O)/c(=C/c3cccc(F)c3)sc2nc1=O,> 4 mM (inactive)
3,c1cc2c(cc1[C@H]1OC[C@H]3[C@@H]1CO[C@H]3c1ccc3c(c1)OCO3)OCO2,> 4 mM (inactive)
4,O=C(O)c1ccc(CN2CCCCC2)o1,> 4 mM (inactive)
5,CN(C)C(=O)Nc1ccc2c(c1)nnn2C,> 4 mM (inactive)
6,COc1ccc(/C=N/n2cn[nH]c2=S)cc1,> 4 mM (inactive)
7,C=C1CSc2nc(=O)c3c(C)c(C)sc3n21,> 4 mM (inactive)
8,Cc1ccc(C(=O)NC2=NCCS2)o1,> 4 mM (inactive)
9,CS(=O)(=O)Cc1ccccc1,> 4 mM (inactive)
10,Cn1c2c(c(=O)n(C)c1=O)CN(Cc1ccco1)CN2,> 4 mM (inactive)
11,Cc1nnsc1C(=O)O,> 4 mM (inactive)
12,Nc1ccnc(C(=O)O)c1,> 4 mM (inactive)
13,OC[C@H]1O[C@@H](n2cnc3c(NCc4ccco4)ncnc32)[C@H](O)[C@@H]1O,> 4 mM (inactive)
14,O=C1c2ccccc2C(=O)c2c(O)c(O)cc(O)c21,> 4 mM (inactive)
15,Cn1c2ccccc2n2c(=S)[nH]nc12,> 4 mM (inactive)
16,CC1=C(/C=C/C(C)=C/C=C/C(C)=C/C=C/C=C(C)/C=C/C=C(C)/C=C/C(=O)[C@]2(C)C[C@@H](O)CC2(C)C)C(C)(C)C[C@H](O)C1,> 4 mM (inactive)
17,CC1(C)O[C@H]2[C@H](O)C[C@](O)(C(N)=O)C[C@H]2O1,> 4 mM (inactive)
18,O=C1CCCN1C(=O)CN1CCOCC1,> 4 mM (inactive)
19,CC12CCCC(O)(C1)C1CC(C)(C)C1CC2 (stereo not given),> 4 mM (inactive)
20,OCc1cc(F)cc2c1OCOC2,> 4 mM (inactive)
21,CNc1ccccc1C(=O)O,> 4 mM (inactive)
22,COC(=O)Cc1cc(=O)n(-c2ccccc2)[nH]1,> 4 mM (inactive)

row,Compound,Kd
1,O=C1CC(NCc2ccco2)C(=O)NN1 (stereo not given),> 4 mM (inactive)
2,CCC(=O)Nc1ccc(-c2nn3c(C)nnc3s2)cc1,> 4 mM (inactive)
3,Cc1cccc(C(C)C)c1NC(=O)c1cccnc1,> 4 mM (inactive)
4,Nc1cc(C(=O)O)ccc1N1CCCCCC1,> 4 mM (inactive)
5,c1ccc(CCc2nc(-c3cccnc3)no2)cc1,> 4 mM (inactive)
6,Cc1ccccc1NS(=O)(=O)c1ccc(F)cc1,> 4 mM (inactive)
7,COc1cc2c(cc1-c1coc3c4c(c(OC)cc3c1=O)OC(C)(C)C=C4)OCO2,> 4 mM (inactive)
8,CCCCCc1c2c(cc(O)c1C(=O)O)OC(=O)c1c(cc(OC)cc1C(=O)CCCC)O2,> 4 mM (inactive)
9,COc1c(C(C)C)oc2cc3oc(=O)ccc3cc12,> 4 mM (inactive)
10,O=C(NCCCO)c1ccncc1,> 4 mM (inactive)
11,Fc1ccc(NC2=NCCS2)cc1Cl,> 4 mM (inactive)
12,COc1ccc(/C=C2\NC(=S)N(C)C2=O)cc1O,> 4 mM (inactive)
13,O=C(NCc1n[nH]c(=O)c2ccccc12)C1CC1,> 4 mM (inactive)
14,Cc1ccc(-n2nnnc2SCC(N)=O)c(C)c1,> 4 mM (inactive)
15,O=C(O)CCCC(=O)Nc1nccs1,> 4 mM (inactive)
16,CC(C)c1ccc2c(c1O)CC[C@H]1C3=C(CC[C@]21C)C(=O)OC3,> 4 mM (inactive)
17,O=C1CCC(=O)N1c1cccc([N+](=O)[O-])c1,> 4 mM (inactive)
18,NS(=O)(=O)c1ccccc1Cl,> 4 mM (inactive)
19,COc1cc2c(cc1OC)-c1cc3ccc(OC)c(OC)c3c[n+]1CC2,> 4 mM (inactive)
